According to patent publication US6828106B2, “Methods and compositions using coiled binding partners” (Cyclacel Limited, priority 1999, dated 2004):

Key:
TEV protease [1] = biological target: T1, TEV protease (Tobacco etch virus, UniProt P04517); assay: TEV protease FRET assay with homodimer-forming reporter peptide; assay type: biochemical; details: 0.05-100 mM iodacetamide added prior to TEV protease; 6 μM reporter peptide, 30° C.; FIG. 9; read-out: IC50 value (TEV protease inhibitor iodacetamide) as determined by FRET analysis
T1 construct: Proteolytic cleavage was initiated by the addition of TEV protease (20U, Gibco Life Technologies); histidine tag; purchased Gibco Life Technologies
T1 sequence (P04517 2038-2279): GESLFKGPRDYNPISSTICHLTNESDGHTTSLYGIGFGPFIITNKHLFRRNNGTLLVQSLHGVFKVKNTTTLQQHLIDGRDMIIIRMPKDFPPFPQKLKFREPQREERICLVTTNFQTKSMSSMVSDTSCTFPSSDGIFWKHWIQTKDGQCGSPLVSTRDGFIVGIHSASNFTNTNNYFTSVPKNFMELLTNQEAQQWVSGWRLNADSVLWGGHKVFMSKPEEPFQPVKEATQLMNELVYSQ
Procedure: (§1) TEV protease activity and inhibition of TEV protease activity was determined by using a peptide capable of forming a homodimer, wherein homodimer formation is decreased following TEV protease cleavage of the peptide, according to the following method.
For FRET analysis the reporter peptide (KGR MRCLEDR VENLYSQ SYHLENE VARLRRL VGELAAK) (SEQ ID NO: 32) was labeled with fluorescein or rhodamine. The labeled peptides were incubated at a total peptide concentration of 6 μM (6:1 ratio, R:F) in 50 mM Tris pH 8, and 0.5 mM EDTA, and 1 mM DTT at 30° C. for 15 minutes in a total volume of 100 μl. Proteolytic cleavage was initiated by the addition of TEV protease (20U, Gibco Life Technologies), and monitored during the time course of the reaction by measuring the emission of fluorescein (excitation 485 nm, emission 520 nm) over time. Initial rates of change of fluorescein emission were determined for the linear portion of the reaction.
(§2) The activity of the TEV protease inhibitor iodacetamide was determined by FRET or FP assays performed as described above in the absence of iodacetamide or in the presence of 0.05-100 mM iodacetamide added prior to the addition of TEV protease. The results of these experiments are presented in FIG. 9 (FRET assay) and FIG. 11 (FP assay).

TEV protease [2] = biological target: T1, TEV protease; assay: TEV protease FP assay with homodimer-forming reporter peptide; assay type: biochemical; details: 0.05-100 mM iodacetamide added prior to TEV protease; 6 μM reporter peptide, 30° C.; read-out: IC50 value (TEV protease inhibitor iodacetamide) as determined by FP analysis
Procedure: as §1
For FP analysis the reporter peptide (sequence recited above) was labeled with fluorescein or with biotin. The labeled peptides were incubated at a total peptide concentration of 6 μM (6:1 ratio, biotin:F) in 50 mM Tris, pH 8, 0.5 mM EDTA, 0.1 mg/ml BSA and 1 mM DTT at 30° C. for 5 minutes in a total volume of 100 μl. Proteolytic cleavage was initiated by the addition of TEV protease (20U), and monitored during the reaction time course by measuring the polarization of fluorescein (excitation 485 nm, emission 520 nm) over time. Initial rates of change of fluorescein polarization were determined for the linear portion of the reaction.
as §2

SMILES: NC(=O)CI [iodacetamide, reference compound]
- IC50 (TEV protease [1]): 885 µM
- IC50 (TEV protease [2]): 1000 µM
